Counter-ions that a name gives are not always drawn.
Tested on: γ-secretase
Assay: Cellular γ-secretase assay (inhibition of Aβ42 secretion)
Format: cell-based
Conditions: human neuroglioma H4 cells overexpressing human APP, 22 hrs incubation
Experimental: Human neuroglioma H4 cells overexpressing human APP were plated at 30,000 cells/well/[…] in 96-well plates in IMDM media containing 10% FCS, […] Hygromycin B and incubated for 2 h at 37° C., 5% CO2 prior to adding test compounds.
Compounds for testing were dissolved in 100% Me2SO yielding in a 10 mM stock solution. Typically […] of these solutions were further diluted in 1000 μl of IMDM media (w/o FCS). Subsequent 1:1 dilutions gave a ten point dose response curve. 100 μl of each dilution was added to the cells in 96-well plates. Appropriate controls using vehicle only and reference compound were applied to this assay. The final concentration of Me2S0 was 0.4%.
After incubation for 22 hrs at 37° C., 5% CO2, 50 μl supernatant was transferred into round-bottom 96-well polypropylene plates for detection of Aβ42. 50 μl assay buffer (50 mM Tris/Cl, pH 7.4, 60 mM NaCl, 0.5% BSA, 1% TWEEN 20) was added to the wells followed by the addition of 100 μl of detection antibody (ruthenylated BAP15 0.0625 μg/ml in assay buffer). 50 μl of a premix of capture antibody (biotinylated 6E10 antibody, 1 μg/ml) and Steptavidin-coated magnetic beads (Dynal M-280, 0.125 mg/ml) were preincubated for 1 hr at room temperature before adding the assay plates. Assay plates were incubated on a shaker for 3 hrs at room temperature and finally read in the Bioveris M8 Analyser according to the manufacturer's instructions (Bioveris).
IC50 values for inhibition of Aβ42 secretion were calculated by nonlinear regression fit analysis using XLfit 4.0 software (IDBS).

Row | SMILES | EC50
1 | COc1cc(Nc2nc3c(Cl)cc(Cl)cn3n2)ccc1-n1cnc(C)c1 [Example 44, (6,8-Dichloro-[1,2,4]triazolo[1,5-a]pyridin-2-yl)-[3-methoxy-4-(4-methyl-imidazol-1-yl)-phenyl]-amine] | 1560 nM
2 | COc1cc(Nc2nc3ccnc(-c4ccc(F)cc4)n3n2)ccc1-n1cnc(C)c1 [Example 45, [5-(4-Fluoro-phenyl)-[1,2,4]triazolo[1,5-c]pyrimidin-2-yl]-[3-methoxy-4-(4-methyl-imidazol-1-yl)-phenyl]-amine] | 1400 nM
3 | COc1cc(Nc2nc3cc(C(F)(F)F)ccn3n2)ccc1-n1cnc(C)c1 [Example 47, [3-Methoxy-4-(4-methyl-imidazol-1-yl)-phenyl]-(7-trifluoromethyl-[1,2,4]triazolo[1,5-a]pyridin-2-yl)-amine] | 1340 nM
4 | COc1cc(Nc2nc3c(Cl)cc(C(F)(F)F)cn3n2)ccc1-n1cnc(C)c1 [Example 48, (8-Chloro-6-trifluoromethyl-[1,2,4]triazolo[1,5-a]pyridin-2-yl)-[3-methoxy-4-(4-methyl-imidazol-1-yl)-phenyl]-amine] | 4510 nM
5 | COc1cc(Nc2nc3c(C)cc(Cl)cn3n2)ccc1-n1cnc(C)c1 [Example 49, (6-Chloro-8-methyl-[1,2,4]triazolo[1,5-a]pyridin-2-yl)-[3-methoxy-4-(4-methyl-imidazol-1-yl)-phenyl]-amine] | 1350 nM
6 | COc1cc(Nc2nc3ccc(C)c(C)n3n2)ccc1-n1cnc(C)c1 [Example 50, (5,6-Dimethyl-[1,2,4]triazolo[1,5-a]pyridin-2-yl)-[3-methoxy-4-(4-methyl-imidazol-1-yl)-phenyl]-amine] | 400 nM
7 | COc1cc(Nc2nc3n(n2)C(c2ccc(F)cc2)CN(S(C)(=O)=O)C3)ccc1-n1cnc(C)c1 (centres unmarked) [Example 57, 5-(4-Fluorophenyl)-N-(3-methoxy-4-(4-methyl-1H-imidazol-1-yl)phenyl)-7-(methylsulfonyl)-5,6,7,8-tetrahydro-[1,2,4]triazolo[1,5-a]pyrazin-2-amine] | 431 nM
8 | COc1cc(Nc2nc3n(n2)C(c2ccc(F)cc2)CN(CC(F)(F)F)C3)ccc1-n1cnc(C)c1 (centres unmarked) [Example 58, 5-(4-fluorophenyl)-N-(3-methoxy-4-(4-methyl-1H-imidazol-1-yl)phenyl)-7-(2,2,2-trifluoroethyl)-5,6,7,8-tetrahydro-[1,2,4]triazolo[1,5-a]pyrazin-2-amine] | 538 nM
9 | COc1cc(Nc2nc3n(n2)CCN(C(=O)C(C)C)C3c2ccc(F)cc2)ccc1-n1cnc(C)c1 (centres unmarked) [Example 59, 1-(8-(4-Fluorophenyl)-2-(3-methoxy-4-(4-methyl-1H-imidazol-1-yl)phenylamino)-5,6-dihydro-[1,2,4]triazolo[1,5-a]pyrazin-7(8H)-yl)-2-methylpropan-1-one] | 590 nM
10 | COc1cc(Nc2nc3c(C)cnc(N4CCCC4)n3n2)ccc1-n1cnc(C)c1 [Example 60, [3-Methoxy-4-(4-methyl-imidazol-1-yl)-phenyl]-(8-methyl-5-pyrrolidin-1-yl-[1,2,4]triazolo[1,5-c]pyrimidin-2-yl)-amine] | 672 nM
11 | COc1cc(Nc2nc3n(n2)C(c2ccc(Cl)cc2)CC(=O)N3)ccc1-n1cnc(C)c1 (centres unmarked) [Example 61, 7-(4-Chloro-phenyl)-2-[3-methoxy-4-(4-methyl-imidazol-1-yl)-phenylamino]-6,7-dihydro-4H-[1,2,4]triazolo[1,5-a]pyrimidin-5-one] | 831 nM
12 | COc1cc(Nc2nc3ncc(C#N)c(-c4ccccc4C)n3n2)ccc1-n1cnc(C)c1 [Example 67, 2-(3-Methoxy-4-(4-methyl-1H-imidazol-1-yl)phenylamino)-7-o-tolyl-[1,2,4]triazolo[1,5-a]pyrimidine-6-carbonitrile] | 450 nM
13 | COc1cc(Nc2nc3nccc(-c4ccncc4)n3n2)ccc1-n1cnc(C)c1 [Example 68, N-(3-Methoxy-4-(4-methyl-1H-imidazol-1-yl)phenyl)-7-(pyridin-4-yl)-[1,2,4]triazolo[1,5-a]pyrimidin-2-amine] | 1170 nM
14 | COc1cc(Nc2nc3ncc(C#N)c(-c4ccccc4F)n3n2)ccc1-n1cnc(C)c1 [Example 69, 7-(2-Fluorophenyl)-2-(3-methoxy-4-(4-methyl-1H-imidazol-1-yl)phenylamino)-[1,2,4]triazolo[1,5-a]pyrimidine-6-carbonitrile] | 485 nM
15 | COc1ccccc1-c1c(C#N)cnc2nc(Nc3ccc(-n4cnc(C)c4)c(OC)c3)nn12 [Example 70, 2-(3-Methoxy-4-(4-methyl-1H-imidazol-1-yl)phenylamino)-7-(2-methoxyphenyl)-[1,2,4]triazolo[1,5-a]pyrimidine-6-carbonitrile] | 673 nM

The next molecules have a lower EC50 than those just listed; values first:

Row | EC50 | SMILES
16 | 180 nM | COc1cc(Nc2nc3c(-c4ccc(F)cc4)cc(C)cn3n2)ccc1-n1cnc(C)c1 [Example 46, [8-(4-Fluoro-phenyl)-6-methyl-[1,2,4]triazolo[1,5-a]pyridin-2-yl]-[3-methoxy-4-(4-methyl-imidazol-1-yl)-phenyl]-amine]
17 | 120 nM | COc1cc(Nc2nc3c(-c4ccc(F)cc4)cccn3n2)ccc1-c1ccnc(C)c1 [Example 53, 8-(4-Fluorophenyl)-N-(3-methoxy-4-(2-methylpyridin-4-yl)phenyl)-[1,2,4]triazolo[1,5-a]pyridin-2-amine]
18 | 110 nM | COc1cc(Nc2nc3cccc(-c4ccc(F)cc4)n3n2)ccc1-c1ccnc(C)c1 [Example 54, 5-(4-Fluorophenyl)-N-(3-methoxy-4-(2-methylpyridin-4-yl)phenyl)-[1,2,4]triazolo[1,5-a]pyridin-2-amine]
19 | 10 nM | COc1cc(Nc2nc3c(-c4ccc(F)c(Cl)c4)cc(C)cn3n2)ccc1-n1cnc(C)c1 [Example 62, [8-(3-Chloro-4-fluoro-phenyl)-6-methyl-[1,2,4]triazolo[1,5-a]pyridin-2-yl]-[3-methoxy-4-(4-methyl-imidazol-1-yl)-phenyl]-amine]
20 | 10 nM | COc1cc(Nc2nc3c(-c4ccc(F)c(F)c4)cc(C)cn3n2)ccc1-n1cnc(C)c1 [Example 63, [8-(3,4-Difluoro-phenyl)-6-methyl-[1,2,4]triazolo[1,5-a]pyridin-2-yl]-[3-methoxy-4-(4-methyl-imidazol-1-yl)-phenyl]-amine]
21 | 73 nM | COc1cc(F)ccc1-c1cc(C)cn2nc(Nc3ccc(-n4cnc(C)c4)c(OC)c3)nc12 [Example 64, [8-(4-Fluoro-2-methoxy-phenyl)-6-methyl-[1,2,4]triazolo[1,5-a]pyridin-2-yl]-[3-methoxy-4-(4-methyl-imidazol-1-yl)-phenyl]-amine]
22 | 24 nM | COc1cc(Nc2nc3c(-c4ccc(F)cc4Cl)cc(C)cn3n2)ccc1-n1cnc(C)c1 [Example 65, [8-(2-Chloro-4-fluoro-phenyl)-6-methyl-[1,2,4]triazolo[1,5-a]pyridin-2-yl]-[3-methoxy-4-(4-methyl-imidazol-1-yl)-phenyl]-amine]
23 | 238 nM | COc1cc(Nc2nc3c(-c4ccc(F)cc4C)cc(C)cn3n2)ccc1-n1cnc(C)c1 [Example 66, [8-(4-Fluoro-2-methyl-phenyl)-6-methyl-[1,2,4]triazolo[1,5-a]pyridin-2-yl]-[3-methoxy-4-(4-methyl-imidazol-1-yl)-phenyl]-amine]
24 | 270 nM | COc1cc(Nc2nc3nccc(-c4ccc(F)cc4)n3n2)ccc1-n1cnc(C)c1 [Example 71, [7-(4-Fluoro-phenyl)-[1,2,4]triazolo[1,5-a]pyrimidin-2-yl]-[3-methoxy-4-(4-methyl-imidazol-1-yl)-phenyl]-amine]
25 | 355 nM | COc1cc(Nc2nc3c(C)cnc(OCC(F)(F)F)n3n2)ccc1-n1cnc(C)c1 [Example 72, [3-Methoxy-4-(4-methyl-imidazol-1-yl)-phenyl]-[8-methyl-5-(2,2,2-trifluoro-ethoxy)-[1,2,4]triazolo[1,5-c]pyrimidin-2-yl]-amine]
26 | 359 nM | COc1cc(Nc2nc3nccc(-c4ccc(F)c(Cl)c4)n3n2)ccc1-n1cnc(C)c1 [Example 73, 7-(3-Chloro-4-fluorophenyl)-N-(3-methoxy-4-(4-methyl-1H-imidazol-1-yl)phenyl)-[1,2,4]triazolo[1,5-a]pyrimidin-2-amine hydrochloride]
27 | 35 nM | COc1cc(Nc2nc3c(-c4ccc(F)cc4F)cc(C)cn3n2)ccc1-n1cnc(C)c1 [Example 74, 8-(2,4-Difluorophenyl)-N-(3-methoxy-4-(4-methyl-1H-imidazol-1-yl)phenyl)-6-methyl-[1,2,4]triazolo[1,5-a]pyridin-2-amine]
28 | 19 nM | COc1cc(Nc2nc3c(-c4ccc(F)c(C(F)(F)F)c4)cc(C)cn3n2)ccc1-n1cnc(C)c1 [Example 75, 8-(4-Fluoro-3-(trifluoromethyl)phenyl)-N-(3-methoxy-4-(4-methyl-1H-imidazol-1-yl)phenyl)-6-methyl-[1,2,4]triazolo[1,5-a]pyridin-2-amine]
29 | 19 nM | COc1cc(Nc2nc3c(-c4ccc(F)c(C)c4)cc(C)cn3n2)ccc1-n1cnc(C)c1 [Example 76, 8-(4-Fluoro-3-methylphenyl)-N-(3-methoxy-4-(4-methyl-1H-imidazol-1-yl)phenyl)-6-methyl-[1,2,4]triazolo[1,5-a]pyridin-2-amine]

Reference: patent publication US20110190269A1, “GAMMA SECRETASE MODULATORS” (priority 2010, published 2011)
